Consider 27 molecules from US9394282B2, “Pyrazole carboxamides as Janus kinase inhibitors” (Merck Sharp & Dohme Corp., priority 2011, dated 2016).

JAK1, sequence (P23458 875-1153): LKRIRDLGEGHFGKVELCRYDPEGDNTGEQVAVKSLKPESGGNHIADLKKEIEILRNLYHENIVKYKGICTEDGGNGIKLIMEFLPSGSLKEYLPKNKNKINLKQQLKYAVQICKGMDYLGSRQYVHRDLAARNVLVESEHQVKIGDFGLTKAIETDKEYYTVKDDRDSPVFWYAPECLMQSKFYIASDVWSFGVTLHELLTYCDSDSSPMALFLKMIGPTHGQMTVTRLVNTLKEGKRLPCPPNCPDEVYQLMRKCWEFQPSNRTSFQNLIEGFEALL
JAK2, sequence (O60674 849-1124): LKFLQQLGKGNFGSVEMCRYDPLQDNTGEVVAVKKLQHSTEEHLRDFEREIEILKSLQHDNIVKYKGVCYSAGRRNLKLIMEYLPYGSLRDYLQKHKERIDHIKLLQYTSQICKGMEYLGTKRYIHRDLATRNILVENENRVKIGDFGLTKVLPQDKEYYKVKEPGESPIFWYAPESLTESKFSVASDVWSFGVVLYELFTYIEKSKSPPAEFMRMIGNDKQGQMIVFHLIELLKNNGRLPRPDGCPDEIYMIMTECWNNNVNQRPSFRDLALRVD

One experiment has as its target JAK1 (Homo sapiens (Human), UniProt P23458). In words: Jak biochemical HTRF assay, JAK1. Conditions: recombinant purified GST-tagged catalytic domain; HTRF format; [ATP] 31.8 μM. From the text:
(§1) Jak Biochemical HTRF Assay Protocol
(§2) Subsequent reagent additions employed an Agilent Bravo.
(In general: Time-resolved FRET reads energy transfer from a long-lived donor to a nearby acceptor.)
For the molecule `N#C[C@H]1CCOC[C@@H]1n1cc(C(N)=O)c(Nc2ccc(C(F)(F)F)nc2)n1` (single isomer, unassigned) [Example 9-14, 1-[(3R,4S or 3S,4R)-4-cyanotetrahydro-2H-pyran-3-yl]-3-{[6-(trifluoromethyl)pyridin-3-yl]amino}-1H-pyrazole-4-carboxamide], the half-maximal inhibitory concentration (IC50) turned out to be 0.7 nM. On the same count and under the same terms, to `Cc1ncc(CN2CC[C@@H](C#N)[C@H](n3cc(C(N)=O)c(Nc4ccc(F)cc4)n3)C2)s1` (racemic) [Example 6-18, 1-{(3S,4R and 3R,4S)-4-cyano-1-[(2-methyl-1,3-thiazol-5-yl)methyl]piperidin-3-yl}-3-[(4-fluorophenyl)amino]-1H-pyrdzole-4-carboxamide] belongs 1 nM; to `N#C[C@@H]1CN(C(=O)OCCN2CCCC2=O)CC[C@H]1n1cc(C(N)=O)c(Nc2ccc(F)cc2)n1` (racemic) [Example 5-15, 2-(2-oxopyrrolidin-1-yl)ethyl (3R,4R and 3S,4S)-4-{4-carbamoyl-3-[(4-fluorophenyl)amino]-1H-pyrazol-1-yl}-3-cyanopiperidine-1-carboxylate], 19 nM; to `CC(C)(COC(=O)N1CC[C@H](n2cc(C(N)=O)c(Nc3ccc(F)cc3)n2)[C@H](C#N)C1)n1cccn1` (racemic) [Example 5-53, 2-methyl-2-(1H-pyrazol-1-yl)propyl (3R,4S and 3S,4R)-4-{4-carbamoyl-3-[(4-fluorophenyl)amino]-1H-pyrazol-1-yl}-3-cyanopiperidine-1-carboxylate], 445 nM. Still for that read-out and setting: as for `N#CCC1(COC(=O)N2CC[C@@H](n3cc(C(N)=O)c(Nc4ccc(F)cc4)n3)[C@H](C#N)C2)CC1` (racemic) [Example 5-39, [1-(cyanomethyl)cyclopropyl]methyl (3R,4R and 3S,4S)-4-{4-carbamoyl-3-[(4-fluorophenyl)amino]-1H-pyrazol-1-yl}-3-cyanopiperidine-1-carboxylate], the figure is 25 nM; as for `N#C[C@@H]1CCN(Cc2cccnc2F)C[C@H]1n1cc(C(N)=O)c(Nc2ccc(F)cc2)n1` (racemic) [Example 6-17, 1-{(3S,4R and 3R,4S)-4-cyano-1-[(2-fluoropyridin-3-yl)methyl]piperidin-3-yl}-3-[(4-fluorophenyl)amino]-1H-pyrazole-4-carboxamide], 1 nM. Still for that read-out and setting: as for `COC1CC(CN2CC[C@@H](n3cc(C(N)=O)c(Nc4ccc(F)cc4)n3)[C@H](C#N)C2)C1` (mixture of isomers) [Example 6-30, 1-{(3R,4R and 3S,4S)-3-cyano-1-[(3-methoxycyclobutyl)methyl]piperidin-4-yl}-3-[(4-fluorophenyl)amino]-1H-pyrazole-4-carboxamide], the figure is 16 nM; as for `N#C[C@@H]1CN(Cc2cccc(F)n2)CC[C@H]1n1cc(C(N)=O)c(Nc2ccc(F)cc2)n1` (racemic) [Example 6-36, 1-{(3R,4R and 3S,4S)-3-cyano-1-[(6-fluoropyridin-2-yl)methyl]piperidin-4-yl}-3-[(4-fluorophenyl)amino]-1H-pyrazole-4-carboxamide], 2 nM.

With `CC(C)(C)COC(=O)N1CC[C@H](n2cc(C(N)=O)c(Nc3ccc(F)cc3)n2)[C@H](C#N)C1` (racemic) [Example 5-50, 2,2-dimethylpropyl (3R,4S and 3S,4R)-4-{4-carbamoyl-3-[(4-fluorophenyl)amino]-1H-pyrazol-1-yl}-3-cyanopiperidine-1-carboxylate], the IC50 amounted to 625 nM. On the same count and under the same terms, as for `CC1=NOC(CN2CC[C@@H](n3cc(C(N)=O)c(Nc4ccc(F)cc4)n3)[C@H](C#N)C2)C1` (mixture of isomers) [Example 6-39, 1-{(3R,4R and 3S,4S)-3-cyano-1-[(3-methyl-4,5-dihydroisoxazol-5-yl)methyl]piperidin-4-yl}-3-[(4-fluorophenyl)amino]-1H-pyrazole-4-carboxamide], the figure is 4 nM. On to `N#C[C@@H]1CCN(C(=O)OC2CCOCC2)CC1n1cc(C(N)=O)c(Nc2ccc(F)cc2)n1` (mixture of isomers) [Example 5-85, tetrahydro-2H-pyran-4-yl (3S,4R and 3R,4S)-3-{4-carbamoyl-3-[(4-fluorophenyl)amino]-1H-pyrazol-1-yl}-4-cyanopiperidine-1-carboxylate], for which the IC50 was 6 nM.

`N#C[C@@H]1CCN(C(=O)OCC(F)(F)F)CC1n1cc(C(N)=O)c(Nc2ccc(F)cc2)n1` (mixture of isomers) [Example 5-78, 2,2,2-trifluoroethyl (3S,4R and 3R,4S)-3-{4-carbamoyl-3-[(4-fluorophenyl)amino]-1H-pyrazol-1-yl}-4-cyanopiperidine-1-carboxylate]: the 50% inhibitory concentration (IC50) came to 4 nM. The same measure, in the same setting: as for `CCOC(=O)N1CC[C@@H](n2cc(C(N)=O)c(Nc3ccc(F)cc3)n2)[C@H](C#N)C1` (racemic) [Example 5-23, ethyl (3R,4R and 3S,4S)-4-{4-carbamoyl-3-[(4-fluorophenyl)amino]-1H-pyrazol-1-yl}-3-cyanopiperidine-1-carboxylate], the figure is 10 nM.

Regarding `N#C[C@@H]1CN(CCC2CCOCC2)CC[C@H]1n1cc(C(N)=O)c(Nc2ccc(F)cc2)n1` (racemic) [Example 6-31, 1-{(3R,4R and 3S,4S)-3-cyano-1-[2-(tetrahydro-2H-pyran-4-yl)ethyl]piperidin-4-yl}-3-[(4-fluorophenyl)amino]-1H-pyrazole-4-carboxamide], the half-inhibitory concentration (IC50) came out at 23 nM. Still for that read-out and setting: to `CC(C)(C#N)COC(=O)N1CC[C@@H](n2cc(C(N)=O)c(Nc3ccc(F)cc3)n2)[C@H](C#N)C1` (racemic) [Example 5-6, 2-cyano-2-methylpropyl (3R,4R and 3S,4S)-4-{4-carbamoyl-3-[(4-fluorophenyl)amino]-1H-pyrazol-1-yl}-3-cyanopiperidine-1-carboxylate] belongs 15 nM; to `N#C[C@H]1CCOC[C@@H]1n1cc(C(N)=O)c(Nc2ccccc2)n1` (single isomer, unassigned) [Example 9-37, 1-[(3S,4R or 3R,4S)-4-cyanotetrahydro-2H-pyran-3-yl]-3-(phenylamino)-1H-pyrazole-4-carboxamide], 10 nM; to `N#C[C@H]1CCOC[C@@H]1n1cc(C(N)=O)c(Nc2cnc3cc(Cl)ccc3c2)n1` (single isomer, unassigned) [Example 9-22, 3-[(7-chloroquinolin-3-yl)amino]-1-[(3R,4S or 3S,4R)-4-cyanotetrahydro-2H-pyran-3-yl]-1H-pyrazole-4-carboxamide], 0.5 nM. Same read-out and setting: as for `N#C[C@@H]1CCOC[C@H]1n1cc(C(N)=O)c(Nc2ccccc2)n1` (single isomer, unassigned) [Example 9-38, 1-[(3R,4S or 3S,4R)-4-cyanotetrahydro-2H-pyran-3-yl]-3-(phenylamino)-1H-pyrazole-4-carboxamide], the figure is 0.3 nM; as for `COC1CC(CN2CC[C@@H](C#N)[C@H](n3cc(C(N)=O)c(Nc4ccc(F)cc4)n3)C2)C1` (mixture of isomers) [Example 6-9, 1-{(3S,4R and 3R,4S)-4-cyano-1-[(3-methoxycyclobutyl)methyl]piperidin-3-yl}-3-[(4-fluorophenyl)amino]-1H-pyrazole-4-carboxamide], 16 nM; as for `N#C[C@@H]1CN(C(=O)OC2CCOCC2)CC[C@H]1n1cc(C(N)=O)c(Nc2ccc(F)cc2)n1` (racemic) [Example 5-13, tetrahydro-2H-pyran-4-yl (3R,4R and 3S,4S)-4-{4-carbamoyl-3-[(4-fluorophenyl)amino]-1H-pyrazol-1-yl}-3-cyanopiperidine-1-carboxylate], 20 nM. Still for that read-out and setting: to `N#C[C@@H]1CN(Cc2cncc(F)c2)CC[C@H]1n1cc(C(N)=O)c(Nc2ccc(F)cc2)n1` (racemic) [Example 6-28, 1-{(3R,4R and 3S,4S)-3-cyano-1-[(5-fluoropyridin-3-yl)methyl]piperidin-4-yl}-3-[(4-fluorophenyl)amino]-1H-pyrazole-4-carboxamide] belongs 6 nM.

Take `N#C[C@@H]1CN(C(=O)OCC(F)(F)F)CC[C@@H]1n1cc(C(N)=O)c(Nc2ccc(F)cc2)n1` (racemic) [Example 5-66, 2,2,2-trifluoroethyl (3R,4S and 3S,4R)-4-{4-carbamoyl-3-[(4-fluorophenyl)amino]-1H-pyrazol-1-yl}-3-cyanopiperidine-1-carboxylate]: the IC50 amounted to 84 nM. `N#C[C@@H]1CCOC[C@H]1n1cc(C(N)=O)c(Nc2cnc3cc(Cl)ccc3c2)n1` (single isomer, unassigned) [Example 9-21, 3-[(7-chloroquinolin-3-yl)amino]-1-[(3S,4R or 3R,4S)-4-cyanotetrahydro-2H-pyran-3-yl]-1H-pyrazole-4-carboxamide]: the IC50 stood at 21 nM.

In the case of `CCOC(=O)N1CC[C@H](n2cc(C(N)=O)c(Nc3ccc(F)cc3)n2)[C@H](C#N)C1` (racemic) [Example 5-44, ethyl (3R,4S and 3S,4R)-4-{4-carbamoyl-3-[(4-fluorophenyl)amino]-1H-pyrazol-1-yl}-3-cyanopiperidine-1-carboxylate], the IC50 was determined as 200 nM.

The next experiment addresses JAK2 (Homo sapiens (Human), UniProt O60674). In words: Jak biochemical HTRF assay, JAK2. The conditions noted are these: recombinant purified GST-tagged catalytic domain; HTRF format; [ATP] 8.5 μM.
Text: as §1, §2
As for `N#C[C@@H]1CCOC[C@H]1n1cc(C(N)=O)c(Nc2ccc(C(F)F)nc2)n1` (single isomer, unassigned) [Example 9-33, 1-[(3S,4R or 3R,4S)-4-cyanotetrahydro-2H-pyran-3-yl]-3-{[6-(difluoromethyl)pyridin-3-yl]amino}-1H-pyrazole-4-carboxamide], the 50% inhibitory concentration (IC50) turned out to be 3 nM. Still for that read-out and setting: to `N#C[C@@H]1CCN(C(=O)OCCF)CC1n1cc(C(N)=O)c(Nc2ccc(F)cc2)n1` (mixture of isomers) [Example 5-79, 2-fluoroethyl (3S,4R and 3R,4S)-3-{4-carbamoyl-3-[(4-fluorophenyl)amino]-1H-pyrazol-1-yl}-4-cyanopiperidine-1-carboxylate] belongs 56 nM.

Still in this experiment, the particulars now being: recombinant purified GST-tagged catalytic domain; HTRF format; [ATP] […].
In the case of `N#C[C@@H]1CN(C(=O)OC2CCCCC2)CC[C@H]1n1cc(C(N)=O)c(Nc2ccc(F)cc2)n1` (mixture of isomers) [Example 5-17, cyclohexyl (3R,4R and 3S,4S)-4-{4-carbamoyl-3-[(4-fluorophenyl)amino]-1H-pyrazol-1-yl}-3-cyanopiperidine-1-carboxylate], the half-inhibitory concentration (IC50) was 1230 nM.

Usually IC50 stands for the point on the concentration scale where inhibition reaches its midpoint.
